Some test systems named below: MALME-3M melanoma; NCI-H226 lung; MDA-MB-231 breast; SN12C renal; HS 578T breast; SNB-75 CNS; RPMI-8226 leukemia; RXF 393 renal; KM12 colon; UO-31 renal.
Holding throughout (assay): NCI anticancer screen, dose series, 48 h

Several values for one entry are separate records, joined by “and”; a condition that tells them apart may be missing. Equal values may be shown once.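 Growth conditions: 96-well plates. Treatment: test compound, 48 hours, 5 concentrations. Analysis: linear interpolation between bracketing concentrations; unreached endpoints set to highest concentration. Here, GI50 denotes the concentration required for 50% inhibition of growth. TGI denotes the concentration required for complete inhibition of growth.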 Where a SMILES comes first, the peptide text is derived from it. [ ]: non-standard residue; d: D form. pGlu = O=C1CC[CH](C(=O)O)N1 A value given as a limit tells only on which side of the number the result lay.

Consider `CCNC(=O)C1CCCN1C(=O)C(CCCN=C(N)N)NC(=O)C(CC(C)C)NC(=O)C(CC(C)C)NC(=O)C(Cc1ccc(O)cc1)NC(=O)C(CO)NC(=O)C(Cc1c[nH]c2ccccc12)NC(=O)C(Cc1cnc[nH]1)NC(=O)C1CCC(=O)N1` (stereo not given) ([pGlu]HWSYLLRP-NHEt; configuration not given here), for which the GI50 with MALME-3M melanoma, with NCI-H226 lung, with MDA-MB-231 breast, in the assay with SN12C renal, with HS 578T breast and with SNB-75 CNS was more than 100 µM throughout. The GI50 in the assay on RPMI-8226 leukemia was 74.3 µM; in the assay with RXF 393 renal, more than 100 µM; with KM12 colon, more than 100 µM; in the assay with UO-31 renal it was more than 100 µM. Besides, the TGI in the assay with MALME-3M melanoma, in the assay with NCI-H226 lung, with MDA-MB-231 breast, with SN12C renal, with HS 578T breast and in the assay on SNB-75 CNS was more than 100 µM each time. Also, the TGI in the assay with RPMI-8226 leukemia, in the assay on RXF 393 renal, in the assay on KM12 colon and in the assay on UO-31 renal was more than 100 µM in each case.
As for `O=C(CCCCCCNC(=O)c1cnc(N(c2ccccc2)c2ccccc2)nc1)NO`, the GI50 with MALME-3M melanoma was 0.73 µM; with NCI-H226 lung, 16.6 µM; in the assay with MDA-MB-231 breast, 2.99 µM; in the assay on SN12C renal, 3.85 µM; in the assay with HS 578T breast, 2.54 µM; with SNB-75 CNS, 1.5 µM. Also, the GI50 was 1.29 µM in the assay on RPMI-8226 leukemia, 0.796 µM with RXF 393 renal, 3.26 µM with KM12 colon and 4.63 µM in the assay with UO-31 renal. Further, the TGI in the assay with MALME-3M melanoma was 5.03 µM; with NCI-H226 lung, more than 91.4 µM; in the assay on MDA-MB-231 breast it was 14.7 µM; in the assay with SN12C renal, 62.4 µM; with HS 578T breast it was more than 100 µM; in the assay with SNB-75 CNS, more than 51.9 µM. Moreover, the TGI in the assay with RPMI-8226 leukemia was more than 100 µM; with RXF 393 renal, 3.85 µM; with KM12 colon it was 21.7 µM; in the assay with UO-31 renal it was 36.6 µM.
For `CCN(Cc1cc(Nc2nc(C)cn3c(-c4cn[nH]c4)cnc23)sn1)C(C)(C)CO`, the GI50 is 0.648 µM in the assay with MALME-3M melanoma; less than 0.0106 µM in the assay with NCI-H226 lung; 0.0508 µM in the assay with MDA-MB-231 breast; 0.0301 µM in the assay with SN12C renal; 0.0227 µM in the assay with HS 578T breast; 0.0107 µM in the assay on SNB-75 CNS. Besides, the GI50 in the assay with RPMI-8226 leukemia was 2.41 µM; in the assay with RXF 393 renal it was less than 0.012 µM; in the assay on KM12 colon, 0.0328 µM; with UO-31 renal it was 0.0428 µM. For the same compound, the TGI with MALME-3M melanoma was 16.2 µM; in the assay with NCI-H226 lung it was 0.513 µM; with MDA-MB-231 breast, 4.35 µM; in the assay on SN12C renal, 10.5 µM; with HS 578T breast, 0.0855 µM; in the assay with SNB-75 CNS, 0.0365 µM. Moreover, the TGI with RPMI-8226 leukemia was found to be 10.1 µM; with RXF 393 renal, 0.0907 µM; in the assay with KM12 colon, 10.4 µM; in the assay with UO-31 renal it was 10.1 µM.
As to `C=C(C)C(O)CCC1(C)C=Cc2c(c(C)cc3c2[nH]c2ccccc23)O1` (stereo not given), the TGI in the assay with MALME-3M melanoma was 25 µM and 24.7 µM; in the assay on NCI-H226 lung, 22.7 µM and 21.7 µM; in the assay with MDA-MB-231 breast, 11.4 µM; with SN12C renal, 25 µM and 21.5 µM; with HS 578T breast, 13.5 µM; in the assay on SNB-75 CNS, 9.8 µM. The TGI in the assay with RPMI-8226 leukemia was 25 µM and 8.01 µM; in the assay on RXF 393 renal it was 25 µM and 8.51 µM; in the assay with KM12 colon, 12.5 µM and 4.32 µM; in the assay with UO-31 renal, 25 µM and 27.3 µM. The GI50 in the assay with SN12C renal was 9.57 µM; in the assay on RPMI-8226 leukemia, 2.96 µM; in the assay with RXF 393 renal, 2.78 µM; in the assay on KM12 colon, 2 µM; in the assay on UO-31 renal, 12 µM.
`COc1ccc(-c2nn(-c3cccc(Cl)c3)cc2-c2cc(-c3cccs3)[nH]c(=S)n2)cc1`: the GI50 in the assay on MALME-3M melanoma was 3.49 µM; in the assay on NCI-H226 lung, 3.16 µM; with MDA-MB-231 breast, 3.52 µM; in the assay with SN12C renal it was 3.92 µM; in the assay on HS 578T breast, 4.26 µM; in the assay with SNB-75 CNS, 3.49 µM. Also, the GI50 is 2.42 µM in the assay on RPMI-8226 leukemia, 3.76 µM in the assay with RXF 393 renal, 3.67 µM in the assay with KM12 colon and 2.82 µM in the assay with UO-31 renal. Further, the TGI in the assay on MALME-3M melanoma was 15.8 µM; in the assay with NCI-H226 lung, 54.4 µM; with MDA-MB-231 breast, 26 µM; in the assay on SN12C renal, more than 100 µM; in the assay on HS 578T breast, more than 100 µM; in the assay on SNB-75 CNS, 25.6 µM. Besides, the TGI in the assay with RPMI-8226 leukemia was 10.9 µM; in the assay on RXF 393 renal, 19.5 µM; in the assay with KM12 colon, 14.4 µM; with UO-31 renal, 26.5 µM.
`O=C1C(Cl)=C(Nc2cccc(F)c2)C(=O)N1Cc1ccc(Cl)cc1`: the GI50 with MALME-3M melanoma is 1.42 µM; in the assay on NCI-H226 lung it was 0.188 µM; with MDA-MB-231 breast it was 0.242 µM; with SN12C renal, 0.825 µM; in the assay with HS 578T breast, 2.86 µM; with SNB-75 CNS, 0.438 µM. The GI50 in the assay with RPMI-8226 leukemia was 0.502 µM; in the assay on RXF 393 renal it was 0.39 µM; in the assay on KM12 colon, 2.66 µM; in the assay with UO-31 renal, 3.69 µM. Besides, the TGI came out at 10.8 µM in the assay with MALME-3M melanoma; 0.852 µM in the assay with NCI-H226 lung; 4.7 µM in the assay on MDA-MB-231 breast; 4.81 µM in the assay with SN12C renal; 9.28 µM with HS 578T breast; 7.63 µM in the assay on SNB-75 CNS. Moreover, the TGI with RPMI-8226 leukemia was 14.2 µM; in the assay with RXF 393 renal, 4.91 µM; in the assay with KM12 colon, 19.1 µM; in the assay with UO-31 renal, 35.9 µM.
As to `O=C(Oc1cccc(F)c1OC(=O)c1cccc(O)c1)c1cccc(O)c1`, the GI50 with MALME-3M melanoma is more than 100 µM; in the assay on NCI-H226 lung it was 45.3 µM; in the assay with MDA-MB-231 breast, more than 100 µM; in the assay on SN12C renal, 56.6 µM; in the assay on HS 578T breast it was more than 100 µM; in the assay with SNB-75 CNS, 35.5 µM. For the same compound, the GI50 with RPMI-8226 leukemia was 14.5 µM; in the assay on RXF 393 renal it was 12.1 µM; with KM12 colon, 23.1 µM; with UO-31 renal, 5.56 µM. For the same compound, the TGI in the assay on MALME-3M melanoma, in the assay with NCI-H226 lung, in the assay with MDA-MB-231 breast, with SN12C renal, with HS 578T breast and with SNB-75 CNS was more than 100 µM in each case. Besides, the TGI was more than 100 µM with RPMI-8226 leukemia, 73.6 µM with RXF 393 renal, more than 100 µM in the assay on KM12 colon and more than 100 µM in the assay with UO-31 renal.
